Laboratory results as given in patent US20230150951A1, “2,5- OR 2,6-DISUBSTITUTED HYDROQUINONE DERIVATIVES WITH AT LEAST ONE CARBOXY, SULFO OR AMIDO GROUP USEFUL AS MEDICAMENTS” (OM PHARMA SA, priority 2020, published 2023).
Like-named read-outs stand apart in the source and are kept apart here.

Key:
Format in all cases: cell-based
IL-18 = experiment: Cytokine release after LPS induction on human whole blood: IL-18
Protocol: (§1) Aim of this in vitro method is to assess compounds effects on release of a panel of cytokines from whole blood following lipopolysaccharide (LPS) induced inflammatory reaction. Whole blood was incubated with compounds for 1 h prior to LPS induction. Cytokine levels in blood were measured using a multiplex FACS-based panel.
(§2) IC50 values determined for the tested compounds expressed in microM [μM] and the values for the inhibition of cytokines were listed for each compound.
(§3) Effect on cytokines release after LPS induction was performed on the compounds dissolved in DMSO or H2O to reach 10-fold concentrated stock solutions and dissolved in culture media.
(§4) Test system: Whole blood was removed from a single donor (into lithium heparin coated tubes; BD Vacutainer; 367886) and diluted 1:5 with RPMI 1640 (Thermo Fisher, 61870036). Within 30 minutes of sampling, blood was incubated with compounds for 1 h prior to LPS stimulation (O111:B4—Sigma L4391; 10 ng/ml final concentration). Stimulation continued under standard cell culture conditions (37° C. with 5% CO2) overnight (18 h), after which plates were centrifuged and supernatant removed and frozen at −80° C. until used for analyses.
(§5) Dilution of test compounds: 10×concentrated solutions (concerning to the final assay concentrations) of each test compound were prepared with the appropriate solvent (in DMSO or in water). These 10× compound solutions (10 μl) were then added to 90 μl pre-diluted whole blood (whole blood: RPMI1640, 1:5) resulting in the final assay concentration.
(§6) Test method: Diluted whole blood (80 μl) was pre-incubated with compounds (10 μl) to give final assay concentrations of 100, 30, 10, 3, 1, 0.3 and 0.1×10^−6M. Blood was incubated at 37° C. with 5% CO2 for 1 h. LPS was diluted in cell culture media to a concentration of […]; 10 μl was added to the whole blood to give a final concentration of 10 ng/ml. Plates were incubated at 37° C. for 18 h. Plates were centrifuged at 3,000 RPM for 5 minutes at 4° C. and supernatant removed and frozen at −80° C. until FACS analysis was carried out.
(§7) Cytokine release was measured using a custom multiplex system (ELISA Genie) according to manufacturers instructions. Prepared samples were run on an Attune NxT flow cytometer (Thermo Fisher).
(§8) Quantification of cytokine release inhibition: known concentration standards were run as part of the cytokine panel to allow quantification of each cytokine concentration in each sample. This was carried out using FCAP Array v3.0 software.
(§9) Results: The dose response relationship on cytokine release following LPS induction of inflammatory response in whole blood was assessed for all compounds. IC50 values were determined for each compound for a panel of cytokines (GM-CSF, IFN-gamma, IL-1beta, IL-2, IL-4, IL-5, IL-6, IL-8, IL-9, IL-10, IL-12p40, IL-13, IL-17A, IL-17F, IL-18, IL-21, IL-22, IL-33, TGF-beta, TNF-alpha, TNF-beta).

FGF-2 = target: T1, FGF-2 (Homo sapiens, UniProt P09038); experiment: FGF-2 induced sprouting of HUVEC, spheroid-based cellular angiogenesis assay; conditions: FGF-2 25 ng/mL preincubated with compound, 24 h
T1 construct: purchased Peprotech 100-18C
Summary of the method: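 Spheroids of 400 HUVEC (passage 3–4), embedded in collagen gel, were stimulated with FGF-1, FGF-2 or VEGF-A (final 25 ng/mL) preincubated 30 min at 37°C with compound (final 1.56–100 μM).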

TNF-alpha = experiment: Cytokine release after LPS induction on human whole blood: TNFα
Protocol: as §1, §2, §3, §4, §5, §6, §7, §8, §9

[1] = Homo sapiens, LPS 10 ng/ml, 18 h, read-out: Whole Blood: IL-18 IC50
[2] = Homo sapiens, LPS 10 ng/ml, 18 h, read-out: Whole Blood: TNF α IC50
[3] = human whole blood, inhibition of LPS induced inflammation, read-out: IC50 IL-18
[4] = human whole blood, inhibition of LPS induced inflammation, read-out: IC50 TNFa

T1 sequence (P09038 134-288): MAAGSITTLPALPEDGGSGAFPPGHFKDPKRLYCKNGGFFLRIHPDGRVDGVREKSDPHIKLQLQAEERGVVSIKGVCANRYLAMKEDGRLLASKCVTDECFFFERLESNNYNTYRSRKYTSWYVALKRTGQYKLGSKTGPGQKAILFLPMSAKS

Structure (SMILES) | IC50 (IL-18; [1]) | IC50 (FGF-2) | IC50 (TNF-alpha; [2]) | IC50 (IL-18; [3]) | IC50 (TNF-alpha; [4]) | IC50 (IL-18; Homo sapiens, 18 h, read-out: Whole Blood: IL-18 IC50) | IC50 (IL-18; Homo sapiens, read-out: IC50 IL-18) | IC50 (TNF-alpha; Homo sapiens, 18 h, read-out: Whole Blood: TNF α IC50) | IC50 (TNF-alpha; Homo sapiens, read-out: IC50 TNFa)
O=C(Nc1ccccc1-c1nnn[nH]1)c1cc(O)c(C(=O)Nc2ccccc2-c2nnn[nH]2)cc1O [Ic-001aTz2, N1,N4-bis(2-(1H-tetrazol-5-yl)phenyl)-2,5-dihydroxyterephthalamide] | 33.9 µM | 70 µM | 0.1 µM |  |  |  |  |  | 
O=C(O)c1cc(NC(=O)c2cc(O)c(C(=O)O)cc2O)cc(NC(=O)c2cc(O)c(C(=O)O)cc2O)c1 [Ib-010a, 3,5-bis(2,5-dihydroxy-4-carboxybenzoylamino)benzoic acid] | > 100 µM | 3.8 µM | 0.31 µM | 100 µM | 0.31 µM |  |  |  | 
O=C(O)c1cc(O)cc(CSCc2cc(O)cc(C(=O)O)c2O)c1O [IVc-058a, 3-((2,5-Dihydroxy-3-carboxyphenyl)methylthiomethyl)-2,5-dihydroxybenzoic acid] | > 100 µM | 4.9 µM | 0.18 µM | 100 µM | 0.18 µM |  |  |  | 
CC(=O)N(Cc1cc(O)c(C(=O)O)cc1O)Cc1cc(O)c(C(=O)O)cc1O [IIIc-057a, N,N-Bis(4-carboxy-2,5-dihydroxyphenylmethyl)acetamide] | > 100 µM | 77 µM | 0.15 µM | 100 µM | 0.15 µM |  |  |  | 
O=C(O)c1cc(NC(=O)c2cc(O)c(C(=O)Nc3ccc(O)c(C(=O)O)c3)cc2O)ccc1O [Ic-007a, 5-(4-(3-carboxy-4-hydroxyphenylaminocarbonyl)-2,5-dihydroxybenzamido)-2-hydroxy benzoic acid] | > 100 µM |  | 0.27 µM | 100 µM | 0.27 µM |  |  |  | 
O=C(O)c1cc(O)c(C(=O)Nc2ccccc2-c2nnn[nH]2)cc1O [Ia-001a-Tz, 4-(2-(1H-tetrazol-5-yl)phenyl-aminocarbonyl)-2,5-dihydroxybenzoic acid] | > 100 µM | 20 µM | 0.63 µM | 100 µM | 0.63 µM |  |  |  | 
O=C(O)c1cc(O)c(C(=O)Nc2ccc(-c3nnn[nH]3)cc2)cc1O [Ia-003a-Tz, 4-(4-(1H-tetrazol-5-yl)phenyl-aminocarbonyl)-2,5-dihydroxybenzoic acid] | > 100 µM | 45 µM | 0.18 µM | 100 µM | 0.18 µM |  |  |  | 
O=C(O)Cc1cc(O)c(C(=O)Nc2ccccc2-c2nnn[nH]2)cc1O [IIIa-001aTz] | 27.7 µM | 14 µM | 0.31 µM | 27.7 µM | 0.31 µM |  |  |  | 
O=C(O)c1cc(O)c(C(=O)Nc2ccccc2C(=O)O)cc1O [Ia-001a, 4-(2-carboxyphenylaminocarbonyl)-2,5-dihydroxybenzoic acid] | > 100 µM | 39 µM | 0.02 µM | 100 µM | 0.02 µM |  |  |  | 
O=C(O)c1cc(O)c(C(=O)Nc2ccccc2S(=O)(=O)O)cc1O [Ia-001c, 2,5-dihydroxy-4-(2-sulfophenylaminocarbonyl)benzoic acid] | > 100 µM | 13 µM | 0.05 µM | 100 µM | 0.05 µM |  |  |  | 
O=C(O)c1ccccc1CNC(=O)c1cc(O)cc(C(=O)O)c1O [IIa-053a, 3-(2-Carboxyphenylmethylaminocarbonyl)-2,5-dihydroxybenzoic acid] | > 100 µM | 18 µM | 0.02 µM | 100 µM | 0.02 µM |  |  |  | 
O=C(O)c1cc(NC(=O)c2cc(O)c(C(=O)O)cc2O)cc(C(=O)O)c1 [Ia-015a, 5-(4-carboxy-2,5-dihydroxybenzamido)isophthalic acid] | > 100 µM | 9.3 µM | 0.17 µM | 100 µM | 0.17 µM |  |  |  | 
COC(=O)c1cc(OC(C)=O)cc(CS(=O)(=O)Cc2cc(OC(C)=O)cc(C(=O)OC)c2OC(C)=O)c1OC(C)=O [IVc-059a-E2-A4] | > 100 µM | ≥ 200 µM | 0.3 µM | 100 µM | 0.3 µM |  |  |  | 
O=C(O)c1cc(NC(=O)c2cc(O)cc(C(=O)Nc3ccc(O)c(C(=O)O)c3)c2O)ccc1O [IIc-007a, 5-(3-(3-carboxy-4-hydroxyphenylaminocarbonyl)-2,5-dihydroxybenzamido)-2-hydroxy benzoic acid] | > 100 µM | 91 µM | 0.03 µM | 100 µM | 0.03 µM |  |  |  | 
O=C(O)c1cc(O)c(CN(Cc2cc(O)c(C(=O)O)cc2O)Cc2cc(O)c(C(=O)O)cc2O)cc1O [IIIc-061a, Tris(4-carboxy-2,5-dihydroxyphenylmethyl)amine] | 32.4 µM | 7.6 µM | 0.03 µM | 32.4 µM | 0.03 µM |  |  |  | 
CCOC(=O)c1cc(NC(=O)c2cc(O)c(C(=O)OCC)cc2O)cc(NC(=O)c2cc(O)c(C(=O)OCC)cc2O)c1 [Ib-010a-E3, ethyl 3,5-bis(2,5-dihydroxy-4-ethoxycarbonylbenzoylamino)benzoate] | > 100 µM |  | 0.98 µM | 100 µM | 0.98 µM |  |  |  | 
O=C(O)c1cc(O)cc(CS(=O)(=O)Cc2cc(O)cc(C(=O)O)c2O)c1O [IVc-059a, 3-((2,5-Dihydroxy-3-carboxyphenyl)methylsulfonylmethyl)-2,5-dihydroxybenzoic acid] | > 100 µM | 2.7 µM | 0.16 µM | 100 µM | 0.16 µM |  |  |  | 
O=C(O)c1cc(O)ccc1NC(=O)c1cc(O)cc(C(=O)Nc2ccc(O)cc2C(=O)O)c1O [IIc-009a, 2-(3-(2-carboxy-4-hydroxyphenylaminocarbonyl)-2,5-dihydroxybenzamido)-5-hydroxyl benzoic acid] | 2.95 µM |  | 0.11 µM | 2.95 µM | 0.11 µM |  |  |  | 
O=C(O)c1cc(NC(=O)c2cc(O)c(C(=O)Nc3ccccc3-c3nnn[nH]3)cc2O)ccc1O [Ic-001a-Tz/004a, 5-(4-(2-(1H-tetrazol-5-yl)phenylaminocarbonyl)-2,5-dihydroxybenzamido)-2-hydroxy benzoic acid] |  | 87 µM |  |  |  | 46.6 µM | 46.6 µM | 0.002 µM | 0.002 µM
O=C(O)Cc1cc(O)c(C(=O)Nc2c(C(=O)O)cccc2C(=O)O)cc1O [IIIa-013a, 2-(4-(carboxymethyl)-2,5-dihydroxybenzamido)isophthalic acid] | > 100 µM | 31 µM | 0.51 µM | 100 µM | 0.51 µM |  |  |  | 
